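Exposure lasted 48 hours, with cells grown in 96-well plates and compounds tested at five concentrations. The concentration for 50% growth inhibition is given as GI50.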 Activity calls are given as the source filed them. No stated cut-off is given here; in the data, active = GI50 up to about 1.1 µM and inactive = higher.
What was measured:
Experiment in all cases: inhibition of tumour cell growth, NCI panel, 48 h
EKVX = test system: EKVX
M14 = test system: M14
MDA-MB-231 = test system: MDA-MB-231
LOX IMVI = test system: LOX IMVI
A549 = test system: A549
NCI-H460 = test system: NCI-H460
HT-29 = test system: HT-29
T47D = test system: T47D
OVCAR-8 = test system: OVCAR-8
SK-OV-3 = test system: SK-OV-3
CCRF-CEM = test system: CCRF-CEM
SK-MEL-5 = test system: SK-MEL-5
U-251 = test system: U-251
SK-MEL-2 = test system: SK-MEL-2
CAKI-1 = test system: CAKI-1
786-0 = test system: 786-0
MDA-MB-435 = test system: MDA-MB-435
BT-549 = test system: BT-549
NCI-H23 = test system: NCI-H23
TK-10 = test system: TK-10
UACC-257 = test system: UACC-257
NCI-H226 = test system: NCI-H226
SW-620 = test system: SW-620
SF-268 = test system: SF-268
KM12 = test system: KM12
HL-60 = test system: HL-60
UACC-62 = test system: UACC-62
RXF 393 = test system: RXF 393
ACHN = test system: ACHN
OVCAR-3 = test system: OVCAR-3
SF-539 = test system: SF-539
HCT-15 = test system: HCT-15
OVCAR-5 = test system: OVCAR-5
SN12C = test system: SN12C
Hs-578T = test system: Hs-578T
PC-3 = test system: PC-3
IGROV-1 = test system: IGROV-1
DU-145 = test system: DU-145
NCI-H522 = test system: NCI-H522
MOLT-4 = test system: MOLT-4
K562 = test system: K562
NCI/ADR-RES = test system: NCI/ADR-RES
SK-MEL-28 = test system: SK-MEL-28
COLO 205 = test system: COLO 205
MCF7 = test system: MCF7
SF-295 = test system: SF-295
A498 = test system: A498
HOP-92 = test system: HOP-92
UO-31 = test system: UO-31
MDA-N = test system: MDA-N
HCC 2998 = test system: HCC 2998
HCT-116 = test system: HCT-116
SNB-19 = test system: SNB-19
OVCAR-4 = test system: OVCAR-4
Malme-3M = test system: Malme-3M
HOP-62 = test system: HOP-62
RPMI-8226 = test system: RPMI-8226

N#CC(N)c1ccc(OCCCCCCCCCCOc2ccc(C(N)C#N)cc2)cc1 (configuration not stated)
GI50 (EKVX): > 100 µM (inactive) | GI50 (M14): > 100 µM (inactive) | GI50 (MDA-MB-231): > 100 µM (inactive) | GI50 (LOX IMVI): > 100 µM (inactive) | GI50 (A549): > 100 µM (inactive) | GI50 (NCI-H460): > 100 µM (inactive) | GI50 (HT-29): > 100 µM (inactive) | GI50 (T47D): 84.1 µM (inactive) | GI50 (OVCAR-8): 44.3 µM (inactive) | GI50 (SK-OV-3): > 100 µM (inactive) | GI50 (CCRF-CEM): 13.8 µM (inactive) | GI50 (SK-MEL-5): > 100 µM (inactive) | GI50 (U-251): 65.3 µM (inactive) | GI50 (SK-MEL-2): 81.8 µM (inactive) | GI50 (CAKI-1): > 100 µM (inactive) | GI50 (786-0): > 100 µM (inactive) | GI50 (MDA-MB-435): > 100 µM (inactive) | GI50 (BT-549): > 100 µM (inactive) | GI50 (NCI-H23): > 100 µM (inactive) | GI50 (TK-10): > 100 µM (inactive) | GI50 (UACC-257): > 100 µM (inactive) | GI50 (NCI-H226): > 100 µM (inactive) | GI50 (SW-620): > 100 µM (inactive) | GI50 (SF-268): > 100 µM (inactive) | GI50 (KM12): > 100 µM (inactive) | GI50 (HL-60): 52.1 µM (inactive) | GI50 (UACC-62): > 100 µM (inactive) | GI50 (RXF 393): 43.2 µM (inactive) | GI50 (ACHN): > 100 µM (inactive) | GI50 (OVCAR-3): > 100 µM (inactive) | GI50 (SF-539): > 100 µM (inactive) | GI50 (HCT-15): > 100 µM | GI50 (OVCAR-5): > 100 µM (inactive) | GI50 (SN12C): > 100 µM (inactive) | GI50 (Hs-578T): > 100 µM (inactive) | GI50 (PC-3): > 100 µM (inactive) | GI50 (IGROV-1): > 100 µM (inactive) | GI50 (DU-145): > 100 µM (inactive) | GI50 (NCI-H522): > 100 µM (inactive) | GI50 (MOLT-4): 18.6 µM (inactive) | GI50 (K562): > 100 µM (inactive) | GI50 (NCI/ADR-RES): 27.8 µM (inactive) | GI50 (SK-MEL-28): > 100 µM (inactive) | GI50 (COLO 205): > 100 µM (inactive) | GI50 (MCF7): > 100 µM (inactive) | GI50 (SF-295): > 100 µM (inactive) | GI50 (A498): > 100 µM (inactive) | GI50 (HOP-92): > 100 µM (inactive) | GI50 (UO-31): > 100 µM (inactive) | GI50 (MDA-N): > 100 µM (inactive) | GI50 (HCC 2998): > 100 µM (inactive) | GI50 (HCT-116): 80 µM (inactive) | GI50 (SNB-19): > 100 µM (inactive) | GI50 (OVCAR-4): > 100 µM (inactive) | GI50 (Malme-3M): > 100 µM (inactive)

CC1(C)OC(=O)C2(O1)C(=O)C1CCCCC12 (configuration not stated)
GI50 (EKVX): 21 µM (inactive) | GI50 (M14): > 100 µM (inactive) | GI50 (MDA-MB-231): 3.84 µM (inactive) | GI50 (A549): 26.9 µM (inactive) | GI50 (HT-29): > 100 µM (inactive) | GI50 (T47D): > 100 µM (inactive) | GI50 (OVCAR-8): > 100 µM (inactive) | GI50 (SK-OV-3): 8.51 µM (inactive) | GI50 (CCRF-CEM): 8.97 µM (inactive) | GI50 (SK-MEL-5): > 100 µM (inactive) | GI50 (U-251): 97.1 µM (inactive) | GI50 (SK-MEL-2): > 100 µM (inactive) | GI50 (CAKI-1): 10.2 µM (inactive) | GI50 (786-0): 35.6 µM (inactive) | GI50 (MDA-MB-435): > 100 µM (inactive) | GI50 (BT-549): 23.9 µM (inactive) | GI50 (NCI-H23): > 100 µM (inactive) | GI50 (TK-10): 70.5 µM (inactive) | GI50 (UACC-257): 40 µM (inactive) | GI50 (NCI-H226): 45.4 µM (inactive) | GI50 (SW-620): > 100 µM (inactive) | GI50 (SF-268): > 100 µM (inactive) | GI50 (KM12): > 100 µM (inactive) | GI50 (UACC-62): 82.4 µM (inactive) | GI50 (RXF 393): 4.89 µM (inactive) | GI50 (ACHN): > 100 µM (inactive) | GI50 (HOP-62): 62.8 µM (inactive) | GI50 (OVCAR-3): > 100 µM (inactive) | GI50 (HCT-15): 86.9 µM | GI50 (OVCAR-5): 44.6 µM (inactive) | GI50 (SN12C): 3.63 µM (inactive) | GI50 (Hs-578T): 32.4 µM (inactive) | GI50 (PC-3): > 100 µM (inactive) | GI50 (IGROV-1): > 100 µM (inactive) | GI50 (DU-145): > 100 µM (inactive) | GI50 (NCI-H522): 12 µM (inactive) | GI50 (MOLT-4): > 100 µM (inactive) | GI50 (RPMI-8226): > 100 µM (inactive) | GI50 (K562): > 100 µM (inactive) | GI50 (NCI/ADR-RES): > 100 µM (inactive) | GI50 (SK-MEL-28): > 100 µM (inactive) | GI50 (COLO 205): 20.1 µM (inactive) | GI50 (MCF7): 5.75 µM (inactive) | GI50 (SF-295): > 100 µM (inactive) | GI50 (A498): 4.78 µM (inactive) | GI50 (UO-31): 82.2 µM (inactive) | GI50 (MDA-N): 30.9 µM (inactive) | GI50 (HCC 2998): > 100 µM (inactive) | GI50 (HCT-116): > 100 µM (inactive) | GI50 (SNB-19): 8.39 µM (inactive) | GI50 (OVCAR-4): 9.73 µM (inactive) | GI50 (Malme-3M): 67.9 µM (inactive)
